Entries after “also recorded” stand apart in the source; their conditions may differ. Where two headings read alike, the source gives them in different places.
What was measured:
AChE (E6) = AChE (E6) (Homo sapiens, UniProt P22303); assay: Inactivation by carbamate inhibitors, AChE E6; assay type: biochemical; set-up: made in house; host or cells: Xenopus oocytes injected with ACHE DNA; settings: inhibitor concentration in parentheses in table
From the text: (§1) reagent concentration (in parentheses), to calculate second order rate

[1] = test system: serum "atypical" BuChE (G/G); assay: Inactivation of immobilized serum BuChE, "atypical"; assay type: biochemical, human; settings: for rate of irreversible inactivation versus normal: "atypical" serum BuChE
[2] = test system: heterozygous serum BuChE (D/G); assay: Inactivation of immobilized serum BuChE, heterozygote; assay type: biochemical, human; settings: 30 minutes
[3] = test system: recombinant human ChEs (all of the examined enzymes); assay: Spontaneous reactivation after complete inhibition, all enzymes; assay type: biochemical
serum normal BuChE (D/D) = assay: Inactivation of immobilized serum BuChE, normal; assay type: biochemical, human; settings: 30 minutes; normal enzyme
"atypical" BuChE [4] = molecular target: T1, "atypical" BuChE (Homo sapiens, UniProt P06276, D98G)
Target sequence in this assay (P06276 29-602 D98G): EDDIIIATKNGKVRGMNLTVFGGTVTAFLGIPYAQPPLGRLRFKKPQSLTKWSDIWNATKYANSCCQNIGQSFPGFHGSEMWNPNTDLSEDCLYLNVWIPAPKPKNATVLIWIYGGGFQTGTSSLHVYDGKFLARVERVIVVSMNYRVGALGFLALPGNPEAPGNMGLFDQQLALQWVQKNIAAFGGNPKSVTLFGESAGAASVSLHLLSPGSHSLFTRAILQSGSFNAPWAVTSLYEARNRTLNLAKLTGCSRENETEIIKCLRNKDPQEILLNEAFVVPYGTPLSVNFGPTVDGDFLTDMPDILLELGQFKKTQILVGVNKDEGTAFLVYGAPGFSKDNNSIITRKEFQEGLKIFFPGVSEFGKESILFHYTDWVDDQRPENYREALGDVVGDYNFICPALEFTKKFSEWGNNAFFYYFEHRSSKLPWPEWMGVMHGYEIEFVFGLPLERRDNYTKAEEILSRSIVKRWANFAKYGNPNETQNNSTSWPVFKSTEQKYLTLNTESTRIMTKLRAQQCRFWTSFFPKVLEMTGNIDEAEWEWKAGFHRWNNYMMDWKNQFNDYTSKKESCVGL
Experimental: Recombinant normal and "atypical" BuChE were produced in Xenopus oocytes microinjected with in vitro transcribed BuChEmRNAs prepared from the corresponding cDNA types (Neville et al, 1990a).
Free binding sites were blocked with PBS-T buffer (144 mM NaCl, 20 mM Na phosphate pH 7.4, 0.05% Tween 20 and 0.01% Tymerosal) for 60 minutes at 37° C. […] Plates were washed three times with PBS-T prior to use.
Inactivation and reactivation measurements: Antibody-immobilized enzymes were exposed to the tested anti-ChEs in PBS-T buffer for varying times (0.5 to 80 minutes) following an initial determination of catalytic activities. At the noted time points, plates were washed three times with PBS-T and remaining substrate hydrolysis rates were determined (Loewenstein et al., 1993a). Spontaneous reactivation was measured for immobilized recombinant ChEs following complete inhibition, three washes with PBS-T, and subsequent incubation for the noted time and activity determination.

AChE (E5) = AChE (E5) (Homo sapiens, UniProt P22303); assay: Inactivation by carbamate inhibitors, AChE E5; assay type: biochemical; set-up: made in house; host or cells: Xenopus oocytes injected with ACHE DNA; settings: inhibitor concentration in parentheses in table
AChE (E5), sequence (P22303-4 with tags, fused parts or gaps limits assumed): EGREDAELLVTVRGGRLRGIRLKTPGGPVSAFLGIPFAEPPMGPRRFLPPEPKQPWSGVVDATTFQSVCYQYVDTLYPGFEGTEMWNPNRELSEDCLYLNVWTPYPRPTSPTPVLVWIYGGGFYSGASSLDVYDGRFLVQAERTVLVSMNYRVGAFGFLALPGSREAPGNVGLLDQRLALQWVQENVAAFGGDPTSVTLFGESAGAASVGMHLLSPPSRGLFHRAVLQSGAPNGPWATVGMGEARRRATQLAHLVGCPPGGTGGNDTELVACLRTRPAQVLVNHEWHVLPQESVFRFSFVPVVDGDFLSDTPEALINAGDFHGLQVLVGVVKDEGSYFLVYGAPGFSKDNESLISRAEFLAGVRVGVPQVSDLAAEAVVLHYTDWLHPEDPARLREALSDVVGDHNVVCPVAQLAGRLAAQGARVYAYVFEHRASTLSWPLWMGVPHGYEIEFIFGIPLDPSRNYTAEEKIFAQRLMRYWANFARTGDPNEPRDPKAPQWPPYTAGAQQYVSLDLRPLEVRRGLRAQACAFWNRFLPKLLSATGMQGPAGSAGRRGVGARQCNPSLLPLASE
From the text: as §1

recombinant normal BuChE = molecular target: T2, recombinant normal BuChE (Homo sapiens, UniProt P06276); assay: Inactivation by carbamate inhibitors, normal BuChE; assay type: biochemical; settings: for inactivation rate compared with AChE: common BuChE; for second order rate constant ki for inactivation: recombinant normal BuChE, inhibitor concentration in parentheses in table
T2 construct: made in house; host or cells: Xenopus oocytes injected with in vitro transcribed mRNA
T2 sequence (P06276 29-602): as the sequence (P06276 29-602 D98G) above, with G70D counted along it
From the text: as §1

[5] = test system: BuChE in early placenta sections; assay: Cytochemical ChE staining, early placenta; set-up: species or system human; settings: 10^-5 M
[6] = test system: AChE in term placenta sections; assay: Cytochemical ChE staining, term placenta; set-up: species or system human; settings: 10^-5 M
"atypical" BuChE [7] = molecular target: T1, "atypical" BuChE; settings: cited from earlier work
Target sequence in this assay (P06276 29-602 D98G limits assumed): as the sequence (P06276 29-602 D98G) above

[8] = test system: "atypical" BuChE in H.K.'s serum; assay: Serum BuChE hydrolysis, H.K.'s serum; assay type: biochemical, human
"atypical" BuChE [9] = molecular target: T1, "atypical" BuChE; settings: cited from earlier work; remark: listed apart in the source
Target sequence in this assay (P06276 29-602 D98G limits assumed): as the sequence (P06276 29-602 D98G) above

ChE = settings: cited from earlier work
[10] = test system: recombinant human BuChE, normal and "atypical"; assay: Spontaneous reactivation after complete inhibition, BuChE; assay type: biochemical
[11] = test system: H.K., homozygous for the "atypical" allele; settings: in vivo
recombinant human AChE = assay: Spontaneous reactivation after complete inhibition, AChE; assay type: biochemical
AD patients = settings: in vivo; cited from earlier work
Rec. BuChE D/D (normal) = molecular target: T3, Rec. BuChE D/D (normal) (Homo sapiens, UniProt P06276); assay: Inhibition by cocaine / α-solanine, recombinant D/D; assay type: biochemical; settings: Rec. BuChE D/D; read-out: IC50 α-solanine
T3 construct: made in house; host or cells: Xenopus oocytes (microinjected in vitro transcribed mRNA)
T3 sequence (P06276 29-602): as the sequence (P06276 29-602 D98G) above, with G70D counted along it

Serum BuChE D/D (normal) = molecular target: T4, Serum BuChE D/D (normal) (Homo sapiens, UniProt P06276); assay: Inhibition by cocaine / α-solanine, serum D/D; assay type: biochemical; settings: Serum BuChE D/D; read-out: IC50 α-solanine
T4 construct: with enzyme from normal serum; from tissue; host or cells: human serum, normal homozygote
T4 sequence (P06276 29-602): as the sequence (P06276 29-602 D98G) above, with G70D counted along it

[12] = molecular target: T5, Rec. BuChE G/G ("atypical") (Homo sapiens, UniProt P06276, D98G); assay: Inhibition by cocaine / α-solanine, recombinant G/G; assay type: biochemical; settings: Rec. BuChE G/G; read-out: IC50 α-solanine
T5 construct: made in house; host or cells: Xenopus oocytes (microinjected in vitro transcribed mRNA)
T5 sequence (P06276 29-602 D98G): as the sequence (P06276 29-602 D98G) above

[13] = test system: Rec. BuChE D/G (1:1 mixture); assay type: biochemical, human; settings: read-out: IC50 α-solanine
[14] = test system: Serum BuChE D/G (heterozygote); assay type: biochemical, human; settings: read-out: IC50 α-solanine
[15] = molecular target: serum and recombinant "atypical" BuChE (Homo sapiens, UniProt P06276, D98G); assay: Inhibition by cocaine / α-solanine, "atypical" enzymes; assay type: biochemical; settings: for activity of "atypical" enzyme at high α-solanine: concentrations higher than 5 μM, FIG. 3
serum and recombinant "atypical" BuChE, sequence (P06276 29-602 D98G limits assumed): as the sequence (P06276 29-602 D98G) above

[16] = molecular target: T6, Serum BuChE G/G ("atypical") (Homo sapiens, UniProt P06276, D98G); assay: Inhibition by cocaine / α-solanine, serum G/G; assay type: biochemical; settings: Serum BuChE G/G; read-out: IC50 α-solanine
T6 construct: applicants prepared serum from an individual who had experienced succinylcholine-induced apnea; from tissue; host or cells: human serum, homozygous carrier of the atypical allele
T6 sequence (P06276 29-602 D98G): as above

[17] = molecular target: T7, normal BuChE (serum and recombinant) (Homo sapiens, UniProt P06276); assay: Inhibition by cocaine / α-solanine, normal enzymes; assay type: biochemical; settings: normal; read-out: IC50 for α-solanine
T7 construct: made in house; host or cells: Xenopus oocytes (recombinant) and normal human serum (native), reported together
T7 sequence (P06276 29-602): as the sequence (P06276 29-602 D98G) above, with G70D counted along it

[18] = test system: BuChE in sera from heterozygotes
[19] = test system: patients suffering from mild to moderate AD; settings: cited from earlier work
PD-patient = settings: in vivo; cited from earlier work
THA treated patients = settings: in vivo, cited from earlier work

AChE (E6), sequence (P22303 32-614): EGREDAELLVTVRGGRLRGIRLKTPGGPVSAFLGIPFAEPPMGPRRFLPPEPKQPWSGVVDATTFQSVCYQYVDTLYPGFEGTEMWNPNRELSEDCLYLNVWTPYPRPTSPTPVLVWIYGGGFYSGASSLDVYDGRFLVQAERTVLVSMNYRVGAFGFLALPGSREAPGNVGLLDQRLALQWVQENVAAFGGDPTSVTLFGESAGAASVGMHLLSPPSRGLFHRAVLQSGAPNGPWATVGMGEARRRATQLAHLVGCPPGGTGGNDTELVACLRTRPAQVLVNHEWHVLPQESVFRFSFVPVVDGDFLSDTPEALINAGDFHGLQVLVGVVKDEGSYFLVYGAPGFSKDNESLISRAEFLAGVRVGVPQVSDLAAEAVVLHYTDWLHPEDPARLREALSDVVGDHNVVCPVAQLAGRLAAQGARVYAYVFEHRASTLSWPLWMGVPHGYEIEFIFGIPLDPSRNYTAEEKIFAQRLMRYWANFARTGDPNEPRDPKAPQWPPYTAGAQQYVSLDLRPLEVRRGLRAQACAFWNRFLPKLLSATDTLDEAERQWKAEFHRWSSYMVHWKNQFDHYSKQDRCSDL

## CCN(C)C(=O)Oc1cccc([C@H](C)N(C)C)c1 [SDZ ENA-713]
AChE (E6)
  second order rate constant ki for inactivation: 71.7 M⁻¹ s⁻¹
[1]; 30 minutes, "atypical" BuChE
  decrease in activity: about 40%
[1]
  rate of irreversible inactivation versus normal: much slower than its normal counterpart
[2]
  loss of activity: 80%
[3]
  spontaneous reactivation, % of original activity: ≤ 8%
Serum normal BuChE (D/D)
  loss of activity: 95%
"atypical" BuChE [4]
  inactivation rate of "atypical" BuChE, compared: considerably lower rates
AChE (E5)
  second order rate constant ki for inactivation: 55 ± 10 M⁻¹ s⁻¹
Recombinant normal BuChE
  inactivation rate compared with AChE: higher than or equal to ACHE
  second order rate constant ki for inactivation: 233 ± 50 M⁻¹ s⁻¹

## C=CC[N+](C)(C)c1ccc(CCC(=O)CCc2ccc([N+](C)(C)CC=C)cc2)cc1 [BW284C51, 1,5-bis-(4-allyldimethylammoniumphenyl)-pentane-3-one dibromide]
[5]
  staining of early placenta sections: not early placenta
[6]
  staining of term placenta: largely suppressed staining in term

## C[N+](C)(C)CCOC(=O)CCC(=O)OCC[N+](C)(C)C [succinylcholine]
"atypical" BuChE [7]
  hydrolysis by the affected ("atypical") enzyme: unable to hydrolyze succinylcholine
"atypical" BuChE [7]; listed as succinyl choline
  hydrolysis by the affected ("atypical") enzyme: unable to hydrolyze succinyl choline; also recorded: inability
[8]
  hydrolysis of succinylcholine by H.K.'s serum BuChE: totally incapable of hydrolyzing succinylcholine; also recorded: cannot hydrolyze succinylcholine

## CC(C)NP(=O)(NC(C)C)OP(=O)(NC(C)C)NC(C)C [iso-OMPA, tetraisopropylpyrophosphoramide]
[5]
  staining of early placenta sections: remained totally unlabeled
"atypical" BuChE [9]
  sensitivity of atypical variant to inhibitors: much less sensitive
[6]
  staining of term placenta: no reduction in labeling intensity

## CN(C)C(=O)Oc1cccc([N+](C)(C)C)c1 [neostigmine]
ChE
  potency / affinity: potency equal to or greater than physostigmine

## CCCCOc1cc(C(=O)NCCN(CC)CC)c2ccccc2n1 [dibucaine]
"atypical" BuChE [7]
  hydrolysis by the affected ("atypical") enzyme: inability

## CN(C)C(=O)Oc1ccc[n+](C)c1 [pyridostigmine]
AChE (E6)
  second order rate constant ki for inactivation: 367 ± 150 M⁻¹ s⁻¹
[1]
  rate of irreversible inactivation versus normal: much slower than its normal counterpart
[10]; BuChE, pyridostigmine, FIG. 4
  spontaneous reactivation, % of original activity: 10%
[11]
  adverse symptoms: insomnia, weight loss and general fatigue, which worsened consistently, and a deep depression
  time of gradual improvement following discontinuation: 10 weeks
Recombinant human AChE; AChE, pyridostigmine, FIG. 4
  spontaneous reactivation, % of original activity: 50%
AChE (E5)
  second order rate constant ki for inactivation: 417 M⁻¹ s⁻¹
Recombinant normal BuChE
  second order rate constant ki for inactivation: 31.7 ± 3.3 M⁻¹ s⁻¹

## CCCCCCCNC(=O)Oc1ccc2c(c1)C1(C)CCN(C)C1N2C (single isomer, unassigned) [N-heptyl physostigmine]
AChE (E6)
  second order rate constant ki for inactivation: 26700 M⁻¹ s⁻¹
[1]
  rate of irreversible inactivation versus normal: much slower than its normal counterpart
[10]; by 20 minutes, normal and "atypical" BuChE
  spontaneous reactivation, % of original activity: 10%
Recombinant human AChE; both AChE forms, N-heptyl physostigmine
  spontaneous reactivation, % of original activity: 5%
"atypical" BuChE [4]
  inactivation rate of "atypical" BuChE, compared: considerably lower rates
AChE (E5)
  second order rate constant ki for inactivation: 23300 ± 6700 M⁻¹ s⁻¹
Recombinant normal BuChE
  inactivation rate compared with AChE: higher than or equal to ACHE
  second order rate constant ki for inactivation: 183000 ± 50000 M⁻¹ s⁻¹

## CNC(=O)Oc1ccc2c(c1)[C@]1(C)CCN(C)[C@@H]1N2C [physostigmine]
AD patients
  effect on cognitive functions: small, short-term positive effect on cognitive functions
[1]
  rate of irreversible inactivation versus normal: much slower than its normal counterpart
"atypical" BuChE [9]
  higher IC50 value, "atypical" versus wild-type: at least 10 fold
  higher Ki value, "atypical" versus wild-type: at least 10 fold
  sensitivity of atypical variant to inhibitors: much less sensitive
Recombinant human AChE; 45 minutes, AChE
  spontaneous reactivation, % of original activity: up to 90%
"atypical" BuChE [4]
  inactivation rate of "atypical" BuChE, compared: considerably lower rates
Recombinant normal BuChE
  inactivation rate compared with AChE: higher than or equal to ACHE
  second order rate constant ki for inactivation: 6330 ± 2670 M⁻¹ s⁻¹

## C[C@H]1CC[C@@H]2[C@@H](C)[C@H]3[C@H](C[C@H]4[C@@H]5CC=C6C[C@@H](O[C@@H]7O[C@H](CO)[C@H](O)[C@H](O[C@@H]8O[C@H](CO)[C@@H](O)[C@H](O)[C@H]8O)[C@H]7O[C@@H]7O[C@@H](C)[C@H](O)[C@@H](O)[C@H]7O)CC[C@]6(C)[C@H]5CC[C@]34C)N2C1 [α-solanine]
Rec. BuChE D/D (normal)
  IC50: 1.95 ± 1.04 µM
Serum BuChE D/D (normal)
  IC50: 2.88 ± 0.33 µM
[12]
  IC50: 171 µM
[13]
  IC50: 3.54 ± 2.41 µM
[14]
  IC50: 3.61 ± 0.81 µM
[15]; "atypical"
  IC50: 170 µM
[15]; "atypical" vs normal
  IC50 difference for α-solanine: > 100 fold
[15]
  activity of "atypical" enzyme at high α-solanine: retains higher activity than the normal and the heterozygote enzymes
[15]; listed as α-solanidine
  activity of "atypical" enzyme at high α-solanine: shows higher activities than the normal, D70 enzyme
[15]; up to 10 μM
  inhibition of "atypical" enzyme by α-solanine: relatively inert
[16]
  IC50: 165 µM
[17]
  IC50: 2.5 µM

## CN(C)C(=O)Oc1cc(OC(=O)N(C)C)cc(C(O)CNC(C)(C)C)c1 (stereo not shown) [bambuterol]
"atypical" BuChE [9]
  higher IC50 value, "atypical" versus wild-type: at least 10 fold
  higher Ki value, "atypical" versus wild-type: at least 10 fold

## Nc1c2c(nc3ccccc13)CCCC2 [tacrine, 1,2,3,4-tetrahydro-9 aminoacridine]
[18]
  effect of 1 μm of the drug: intermediate levels of activity
[19]; 30 weeks
  improvement in AD: statistically significant, dose-related improvements
[19]; in 2% of the cases
  serum level of the aminotransferase: 20 times the upper limit of normal value
[19]; in vivo
  cases reaching 20 times the upper limit of normal aminotransferase: 2%
  serum level of the aminotransferase, usual: less than three times the upper limit of normal value
PD-patient
  PD symptoms: worsening of the symptoms
THA treated patients
  patients with cholinergic side-effects / deficits: up to 15%
THA treated patients; listed as THA
  patients with cholinergic side-effects / deficits: over 10%
